Test results taken from patent US20140193827A1 (TEVA PHARMACEUTICAL INDUSTRIES, LTD., priority 2013, published 2014).

Tested on: GA-primed murine splenocytes
Assay: ANOVA-based pattern identification method
Format: cell-based, mouse
Details: DOWN IN GA AND REF ONLY
Excerpt: We sought to identify probes matching specific patterns of expression across experimental conditions using a technique that referred to as the ANOVA-based Pattern Identification Method.
To carry out the analysis in a general manner, we computed the 6 p-values required to do pairwise comparisons of all 4 conditions for all probes using the ANOVA1 function in MATLAB. We then identified sets of probes matching the desired pattern. In the example above, probes were identified as being only affected by PG if their 6 pairwise comparison pvalues matched the following pattern (pGA-PG<0.05, pPG-reference standard<0.05, pPG-Medium<0.05, pGAMedium>0.05, pGA-reference standard>0.05, preference standard-Medium>0.05).

Substance: glatiramer acetate [GA]
- AA536749 expression level: 8.75
- C5F3R expression level: 5.814
- CD33 expression level: 6.382
- CD63 expression level: 7.484
- CLEC4E expression level: 6.76
- CXCR4 expression level: 9.154
- GAS7 expression level: 6.685
- GPR97 expression level: 6.1434
- KLC4 expression level: 7.786
- LOC385923 expression level: 7.651
- LOC386268 expression level: 6.655
- LOC386288 expression level: 7.006
- LOC386360 expression level: 9.445
- TMEM38B expression level: 8.3
- average expression of 1100001G20RIK: 6.239
- average expression of 1110014N23RIK: 9.678
- average expression of 1200002N14RIK: 6.896
- average expression of 1300010F03R1K: 6.604
- average expression of 1300010F03RIK: 6.764
- average expression of 1700073E17RIK: 5.669
- average expression of 1810009N02RIK: 8.11
- average expression of 1810030N24RIK: 6.84
- average expression of 2010001M09RIK: 13.2
- average expression of 2310040G07RIK: 5.712
- average expression of 2310067B10RIK: 7.502
- average expression of 2310079N02RIK: 9.098
- average expression of 2510022D24RIK: 8.141
- average expression of 2610024M03RIK: 6.018
- average expression of 2610028H07RIK: 10.1
- average expression of 2810402K13RIK: 8.169
- average expression of 2810422O20RIK: 7.018
- average expression of 2900079J23RIK: 5.766
- average expression of 3110004L20RIK: 5.934
- average expression of 3110082D06RIK: 5.99
- average expression of 4930519F16RIK: 5.617
- average expression of 4930572J05RIK: 10.41
- average expression of 5031439G07RIK: 7.967
- average expression of 5330417C22RIK: 5.64
- average expression of 5830415F09RIK: 6.998
- average expression of 6230425C21RIK: 7.021
- average expression of 6430511F03: 6.247
- average expression of 6430526N21RIK: 7.232
- average expression of 6720480F11RIK: 5.641
- average expression of 6720486H14RIK: 5.584
- average expression of 9030025P20RIK: 8.593
- average expression of 9330152L17: 5.75
- average expression of A430043M19RIK: 6.108
- average expression of A630038P11RIK: 5.552
- average expression of A730017D01RIK: 6.519
- average expression of A930014P08RIK: 5.554
- average expression of ABCC4: 7.757
- average expression of ACBD4: 9.154
- average expression of ACP2: 6.811
- average expression of ACTR3B: 6.47
- average expression of ADAM11: 5.629
- average expression of AGAP1: 5.989
- average expression of ANKRD13A: 10.24
- average expression of APP: 6.949
- average expression of ARHGAP22: 6.192
- average expression of ATP6V1B2: 10.4
- average expression of AW011738: 6.2494
- average expression of B130002B06RIK: 5.7347
- average expression of B930048N13RIK: 5.895
- average expression of B930049N04RIK: 5.592
- average expression of B930097H17RIK: 5.792
- average expression of BC014795: 8.05
- average expression of BC065397: 6.46
- average expression of BC066107: 6.578
- average expression of BMP3: 5.623
- average expression of BRD2: 11.26
- average expression of C330019G07RIK: 6.738
- average expression of C430003P19RIK: 9.571
- average expression of CAGE1: 5.862
- average expression of CASP1: 11.51
- average expression of CBLC: 5.866
- average expression of CD151: 8.029
- average expression of CENTG3: 6.784
- average expression of CEPT1: 10.22
- average expression of CFB: 6.244
- average expression of CLEC4A1: 6.263
- average expression of CLEC5A: 5.873
- average expression of CNTNAP3: 5.796
- average expression of COgeneric: 8.105
- average expression of CREG1: 6.616
- average expression of CRTAC1: 5.925
- average expression of CTSL: 5.744
- average expression of D030051N19RIK: 8.287
- average expression of D030072B18RIK: 5.56
- average expression of DGKQ: 6.895
- average expression of DLG3: 7.023
- average expression of DNMT3L: 6.042
- average expression of DUSP6: 5.768
- average expression of E330023P07RIK: 5.77
- average expression of EG434402: 9.171
- average expression of EG633640: 6.136
- average expression of ELL: 9.635
- average expression of EPB4.1L3: 5.896
- average expression of EPN3: 5.711
- average expression of ERCC4: 8.15
- average expression of FA2H: 5.977
- average expression of FBXL20: 7.805
- average expression of FCMD: 6.473
- average expression of FOS: 6.875
- average expression of FRMPD1: 5.584
- average expression of GAA: 8.021
- average expression of GALGT1: 7.448
- average expression of GALNT10: 8.096
- average expression of GDPD1: 6.392
- average expression of GM498: 5.674
- average expression of GPS2: 9.303
- average expression of GSTM2: 5.945
- average expression of GTPBP1: 9.185
- average expression of HMOX1: 6.561
- average expression of HRSP12: 8.037
- average expression of IGK-V33: 9.992
- average expression of IGLC2_J00595—IG_LAMBDA—CONSTANT_2_14: 13.7
- average expression of IRAK3: 9.019
- average expression of IRF3: 7.749
- average expression of IVD: 9.212
- average expression of KCNC4: 5.832
- average expression of KRT39: 5.551
- average expression of KRTAP5-4: 5.651
- average expression of LOC193563: 5.759
- average expression of LOC238836: 13.84
- average expression of LOC243025: 6.623
- average expression of LOC327767: 5.978
